Test results published in patent US8158088B2, “Extractant compositions for co-extracting cesium and strontium, a method of separating cesium and strontium from an aqueous feed, and calixarene compounds” (Battelle Energy Alliance, LLC, priority 2008, dated 2012).

Assays:
Type in all cases: physicochemical
[1] = Solubility of the calixarene in the extractant solvent
[2] = Solvent stability: cesium distribution ratios as a function of contact time with 1.5 M HNO3
Protocol: (§1) The stability of the mixed extractant solvents prepared using dialkyloxycalix[4]arenebenzocrown-6 compounds (MC-8, MC-8B, MC-10, MC-10B, MC-12, or MC-12B) relative to BOBCalixC6 in the FPEX I process solvent was determined. Samples were prepared using each of the dialkyloxycalix[4]arenebenzocrown-6 compounds and contacted with 1.5 M HNO3. The samples included 0.007 M of the respective dialkyloxycalix[4]arenebenzo-crown-6 compound (MC-8, MC-8B, MC-10, MC-10B, MC-12, or MC-12B), 0.075 M DtBuCH18C6, 0.75 M Cs-7SB modifier, and 0.003 M TOA in ISOPAR® L. The stability of the dialkyloxycalix[4]arene-benzocrown-6 based solvents was evaluated by measuring the cesium and strontium distribution ratios as a function of contact time. These cesium and strontium distribution ratios for the mixed extractant solvents are presented in Table 9 and Table 10, respectively, along with the cesium and strontium distribution ratios for the FPEX I process solvent. The symbol “-” is used in Tables 9 and 10 to indicate no data was collected.
(§2) This degradation is likely due to chemical attack or nitration of the BOBCalixC6 in the FPEX I process solvent. […] However, it is difficult to compare the relative extents of degradation. In order to compare the different extractants, the distribution ratio data presented in Tables 9 and 10 were normalized to the values obtained at t=0 days contact. The normalized cesium and strontium distribution ratios for the FPEX I process solvent and the mixed extractant solvents as a function of contact time are presented in FIGS. 2 and 3, respectively.

[3] = Strontium distribution ratio (DSr), equilibrium batch contact of mixed extractant solvent with nitric acid feed
[4] = Solvent stability: strontium distribution ratios as a function of contact time with 1.5 M HNO3
Protocol: as §1, §2

[5] = contact time 0 days with 1.5 M HNO3, 0.007 M calixarene, 0.075 M DtBuCH18C6, 0.75 M Cs-7SB, 0.003 M TOA in ISOPAR L
[6] = contact time 34 days with 1.5 M HNO3
[7] = contact time 70 days with 1.5 M HNO3
[8] = contact time 278 days with 1.5 M HNO3

CCCCCCCCOc1c2cccc1Cc1cccc3c1OCCOCCOc1ccccc1OCCOCCOc1c(cccc1Cc1cccc(c1OCCCCCCCC)C3)C2 [MC-8, 1,3-alternate-25,27-di(octyloxy)calix[4]arenebenzocrown-6]
precipitation on storage ([1]; 0.05 M MC-8 solvent, room temperature, several months): no observable precipitation
solubility in the mixed extractant solvent ([1]; MC-8 varied from 0.01 M to 0.05 M in 0.075 M DtBuCH18C6, 0.75 M Cs-7SB, 0.003 M TOA in ISOPAR L): soluble at these increased concentrations
Cesium distribution ratio as a function of contact time [2, 5]: 4.2
Cesium distribution ratio as a function of contact time [2, 6]: 3.2
Cesium distribution ratio as a function of contact time [2, 7]: 3.6
Cesium distribution ratio as a function of contact time [2, 8]: 2.8
DSr ([3]; 0.010 M MC-8, contact E1, 1.5 M HNO3, 0.075 M DtBuCH18C6, 0.75 M Cs-7SB, 0.003 M TOA in ISOPAR L): 8.9
DSr ([3]; 0.015 M MC-8, contact E1, 1.5 M HNO3): 7.2
DSr ([3]; 0.020 M MC-8, contact E1, 1.5 M HNO3): 9.4
DSr ([3]; 0.025 M MC-8, contact E1, 1.5 M HNO3): 9.1
DSr ([3]; 1.0 M HNO3, 20 °C, contact E1, 0.025 M MC-8, 0.075 M DtBuCH18C6, 0.75 M Cs-7SB, 0.003 M TOA in ISOPAR L): 7.4
DSr ([3]; 1.5 M HNO3, 20 °C, contact E1, 0.025 M MC-8): 12.4
DSr ([3]; 2.0 M HNO3, 20 °C, contact E1, 0.025 M MC-8): 16.2
DSr ([3]; 3.0 M HNO3, 20 °C, contact E1, 0.025 M MC-8): 3rd phase
DSr ([3]; 4.0 M HNO3, 20 °C, contact E1, 0.025 M MC-8): 3rd phase
DSr ([3]; 15 °C, contact E1, 1.0 M HNO3 feed, 0.025 M MC-8, 0.075 M DtBuCH18C6, 0.75 M Cs-7SB, 0.003 M TOA in ISOPAR L): 9.0
DSr ([3]; 20 °C, contact E1, 1.0 M HNO3 feed, 0.025 M MC-8): 6.0
DSr ([3]; 25 °C, contact E1, 1.0 M HNO3 feed, 0.025 M MC-8): 4.6
DSr ([3]; 30 °C, contact E1, 1.0 M HNO3 feed, 0.025 M MC-8): 3.4
DSr ([3]; 35 °C, contact E1, 1.0 M HNO3 feed, 0.025 M MC-8): 2.5
DSr ([3]; contact E1, batch contact flowsheet, simulated feed 1.0 M HNO3, 0.025 M MC-8): 7.1
DSr ([3]; contact E2, simulated feed 1.0 M HNO3, 0.025 M MC-8): 6.2
DSr ([3]; contact E3, simulated feed 1.0 M HNO3, 0.025 M MC-8): 6.2
DSr ([3]; contact St1 (strip), 0.025 M MC-8): 0.022
DSr ([3]; contact St2 (strip), 0.025 M MC-8): 0.006
Strontium distribution ratio, contact E1 ([3]; first forward extraction, 1.5 M HNO3 feed simulant, 25 °C, 0.007 M calixarene, 0.075 M DtBuCH18C6, 0.75 M Cs-7SB, 0.003 M TOA in ISOPAR L): 10.5
Strontium distribution ratio, contact St1 ([3]; first strip with 0.01 M HNO3, 35 °C, 0.007 M calixarene solvent): 0.06
Strontium distribution ratio, contact E2 ([3]; second forward extraction, 1.5 M HNO3 feed, 25 °C, 0.007 M calixarene solvent): 8.6
Strontium distribution ratio, contact St2 ([3]; second strip with 0.01 M HNO3, 35 °C, 0.007 M calixarene solvent): 0.01
Strontium distribution ratio, contact E3 ([3]; third forward extraction, 1.5 M HNO3 feed, 25 °C, 0.007 M calixarene solvent): 8.5
Strontium distribution ratio as a function of contact time [4, 5]: 10.5
Strontium distribution ratio as a function of contact time [4, 6]: 7.7
Strontium distribution ratio as a function of contact time [4, 7]: 9.3
Strontium distribution ratio as a function of contact time [4, 8]: 8.0
